According to patent US10533006B2, “Nitrogen-containing heterocycle and carbocycle derivatives having TrkA inhibitory activity” (Shionogi & Co., Ltd., priority 2016, dated 2020):
pIC50: −log10 of the molar value. Like-named read-outs stand apart in the source and are kept apart here.

How the values were obtained:
hERG channel (IKr) = target: T1, hERG channel (IKr) (Homo sapiens, UniProt Q12809); assay: hERG test (whole cell patch clamp, IKr); type: cell-based; conditions: CHO cells expressing hERG channel, read-out: % inhibition of tail peak current (IKr); for inhibition at 5 μmol/L: pH 7.4, 5 μmol/L of test compound; for inhibition at 10 μmol/L: pH 7.4, 10 μmol/L of test compound
T1 construct: expressed in transfected cells; host or cells: CHO cells
Excerpt: For the purpose of assessing risk of an electrocardiogram QT interval prolongation of the compound of the present invention, effects of the compound of the present invention on delayed rectifier K+ current (IKr), which plays an important role in the ventricular repolarization process, was studied using CHO cells expressing human ether-a-go-go related gene (hERG) channel.
After a cell was retained at a membrane potential of −80 mV by whole cell patch clamp method using an automated patch clamp system (QPatch; Sophion Bioscience A/S) and gave a leak potential of −50 mV, IKr induced by depolarization pulse stimulation at +20 mV for 2 seconds, and further, repolarization pulse stimulation at −50 mV for 2 seconds, was recorded. A vehicle, which is the 0.1-0.3% dimethyle sulfoxide solution in extracellular solution (NaCl: 145 mmol/L, KCl: 4 mmol/L, CaCl2: 2 mmol/L, MgCl2: 1 mmol/L, glucose: 10 mmol/L, HEPES (4-(2-hydroxyethyl)-1-piperazineethanesulfonic acid): 10 mmol/L, pH7.4), or the compound of the present invention had been dissolved at an objective concentration in the extracellular solution is applied to the cell at room temperature for 7 minutes or more. From the recording IKr, an absolute value of the tail peak current was measured based on the current value at the resting membrane potential using analysis software (QPatch assay software; Sophion Bioscience A/S). Further, the % inhibition of tail peak current for the compound of the present invention relative to the tail peak current after application of the vehicle is calculated to assess influence of the compound of the present invention on IKr.

human TrkA = target: T2, human TrkA (Homo sapiens, UniProt P04629); assay: Human TrkA inhibition assay; type: biochemical; conditions: human TrkA phosphorylation inhibition, ATP 500 μmol/L
T2 construct: purchased Lifetechnologies PV3144
In short: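 Human TrkA (1 nmol/L final) preincubated 15 min with compound, then FL-peptide 27 (1.5 μmol/L) and ATP (500 μmol/L) added; 120 min at 37 °C in HEPES/MgCl2/DTT buffer. Mobility-shift measurement of phosphorylated vs non-phosphorylated substrate; IC50 by logistic regression over 3-fold dilution series.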

T1 sequence (Q12809 whole entry): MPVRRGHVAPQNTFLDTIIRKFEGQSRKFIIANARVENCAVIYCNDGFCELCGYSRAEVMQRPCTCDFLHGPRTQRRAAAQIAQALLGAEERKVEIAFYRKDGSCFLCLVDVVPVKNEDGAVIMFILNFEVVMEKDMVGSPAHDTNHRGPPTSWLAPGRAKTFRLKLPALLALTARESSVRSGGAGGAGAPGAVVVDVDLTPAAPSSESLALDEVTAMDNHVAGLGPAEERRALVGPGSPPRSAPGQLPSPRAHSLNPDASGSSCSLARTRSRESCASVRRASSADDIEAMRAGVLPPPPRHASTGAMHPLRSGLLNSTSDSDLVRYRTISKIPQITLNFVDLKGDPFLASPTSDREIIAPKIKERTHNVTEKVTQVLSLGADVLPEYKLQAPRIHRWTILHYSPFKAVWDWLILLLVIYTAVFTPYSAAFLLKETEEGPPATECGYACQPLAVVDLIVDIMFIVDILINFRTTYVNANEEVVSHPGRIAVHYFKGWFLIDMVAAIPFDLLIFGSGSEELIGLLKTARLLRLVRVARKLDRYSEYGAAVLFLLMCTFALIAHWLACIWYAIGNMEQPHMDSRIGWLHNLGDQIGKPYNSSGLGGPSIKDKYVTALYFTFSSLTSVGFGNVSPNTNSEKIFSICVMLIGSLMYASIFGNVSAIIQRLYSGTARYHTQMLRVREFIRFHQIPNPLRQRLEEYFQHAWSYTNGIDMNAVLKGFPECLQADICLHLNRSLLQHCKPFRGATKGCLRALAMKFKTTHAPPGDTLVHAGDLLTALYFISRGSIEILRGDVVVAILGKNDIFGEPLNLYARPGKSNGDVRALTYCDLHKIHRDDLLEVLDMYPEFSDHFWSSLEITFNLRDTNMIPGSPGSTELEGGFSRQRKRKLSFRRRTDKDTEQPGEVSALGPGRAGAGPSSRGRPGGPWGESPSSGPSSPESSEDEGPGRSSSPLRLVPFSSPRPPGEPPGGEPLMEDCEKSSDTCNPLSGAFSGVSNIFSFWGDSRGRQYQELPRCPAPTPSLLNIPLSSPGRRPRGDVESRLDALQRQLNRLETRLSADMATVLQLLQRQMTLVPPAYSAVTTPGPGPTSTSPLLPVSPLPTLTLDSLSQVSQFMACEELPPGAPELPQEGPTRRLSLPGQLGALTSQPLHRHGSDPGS
T2 sequence (P04629 33-796): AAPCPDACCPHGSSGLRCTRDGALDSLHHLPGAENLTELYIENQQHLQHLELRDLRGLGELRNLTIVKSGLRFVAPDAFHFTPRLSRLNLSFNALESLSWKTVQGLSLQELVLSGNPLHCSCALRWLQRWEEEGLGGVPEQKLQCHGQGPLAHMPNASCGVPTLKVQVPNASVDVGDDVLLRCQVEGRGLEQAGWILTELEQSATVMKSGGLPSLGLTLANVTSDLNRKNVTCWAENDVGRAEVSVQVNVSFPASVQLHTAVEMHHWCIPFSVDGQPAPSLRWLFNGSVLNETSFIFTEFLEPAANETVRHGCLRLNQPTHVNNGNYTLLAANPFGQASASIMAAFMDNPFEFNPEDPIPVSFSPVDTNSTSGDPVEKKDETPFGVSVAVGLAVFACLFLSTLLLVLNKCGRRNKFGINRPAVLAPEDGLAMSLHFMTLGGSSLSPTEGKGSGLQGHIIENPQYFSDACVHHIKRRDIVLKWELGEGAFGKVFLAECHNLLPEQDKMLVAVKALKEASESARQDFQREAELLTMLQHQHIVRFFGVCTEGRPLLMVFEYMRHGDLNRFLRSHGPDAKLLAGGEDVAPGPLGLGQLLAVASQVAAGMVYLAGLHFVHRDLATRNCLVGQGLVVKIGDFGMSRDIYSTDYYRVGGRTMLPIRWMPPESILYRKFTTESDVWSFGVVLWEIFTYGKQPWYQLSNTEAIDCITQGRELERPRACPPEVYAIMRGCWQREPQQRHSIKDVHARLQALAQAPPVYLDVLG

SMILES | pIC50 (human TrkA; read-out: IC50_nM) | other results
COCCN1C[C@@H](NC(=O)Nc2c(C)c(-c3cnc(CO)nc3)nn2-c2ccccc2)[C@H](c2ccccc2)C1 (racemic) [Compound I-10] | > 7.00 | inhibition at 5 μmol/L (hERG channel (IKr)): 34.6%
CCN1CCC(NC(=O)c2cc(-c3nn(-c4ccccc4)c(NC(=O)N[C@@H]4C[C@@H](CCOC)N(C)[C@H]4c4ccc(F)c(F)c4)c3C)ccn2)CC1 [Compound I-66] | > 7.00 | inhibition at 5 μmol/L (hERG channel (IKr)): 22.6%
CCN1CCC(NC(=O)c2cc(-c3nn(-c4ccccc4)c(NC(=O)N[C@@H]4C[C@@H](CCOC)C[C@H]4c4ccccc4)c3C)ccn2)CC1 [Compound I-67] | > 7.00 | inhibition at 5 μmol/L (hERG channel (IKr)): 16.3%
COCC[C@@H]1C[C@@H](NC(=O)Nc2c(C)c(-c3cnc(OC)nc3)nn2-c2ccccc2)[C@H](c2ccnc(F)c2)N1C [Compound I-92] |  | inhibition at 30 μmol/L (hERG channel (IKr); pH 7.4, 30 μmol/L of test compound): 19.3%; pIC50 (human TrkA; read-out: IC50 value): 9.13
COCC[C@@H]1C[C@@H](NC(=O)Nc2c(C)c(-c3cc(C(=O)NO)c(=O)n(C)c3)nn2-c2ccccc2)[C@H](c2ccccc2)C1 [Compound I-120] | > 7.00 | 
COCC[C@@H]1C[C@@H](NC(=O)Nc2c(C)c(-c3cc(C(=O)O)c(=O)n(C)c3)nn2-c2ccccc2)[C@H](c2ccccc2)C1 [Compound I-149] | > 7.00 | 
COCCN1C[C@@H](NC(=O)Nc2c(C)c(-c3ccc(N=S(C)(C)=O)nc3)nn2-c2ccccc2)[C@H](c2ccc(F)c(F)c2)C1 [Compound I-151] |  | pIC50 (human TrkA; read-out: IC50 value): 8.82
COCCN1C[C@@H](NC(=O)Nc2c(C)c(-c3ccnc(C(=O)NO)c3)nn2-c2ccccc2)[C@H](c2ccc(F)c(F)c2)C1 [Compound I-155] | > 7.00 | 
COCCN1C[C@@H](NC(=O)Nc2c(C)c(-c3ccnc(C(=O)NOC)c3)nn2-c2ccccc2)[C@H](c2ccc(F)c(F)c2)C1 [Compound I-156] | > 7.00 | 
COCCN1C[C@@H](NC(=O)Nc2c(C)c(-c3cnc4c(cnn4C)c3)nn2-c2ccccc2)[C@H](c2ccnc(F)c2)C1 [Compound I-159] |  | pIC50 (human TrkA; read-out: IC50 value): 9.00
COCCN1C[C@H](NC(=O)Nc2c(C)c(-c3cnc4c(cnn4C)c3)nn2-c2ccccc2)[C@@H](c2ccnc(F)c2)C1 [Compound I-160] | < 6.00 | 
COCC[C@@H]1C[C@@H](NC(=O)Nc2c(C)c(-c3cnc(OC)nc3)nn2-c2ccccc2)[C@H](c2ccnc(F)c2)C1 [Compound I-165] | > 7.00 | 
COCCN1C[C@@H](NC(=O)Nc2cc(-c3cnc4c(cnn4C)c3)nn2C)[C@H](c2ccc(F)c(F)c2)C1 [Compound I-167] |  | pIC50 (human TrkA; read-out: IC50 value): 7.55
COCC[C@@H]1C[C@@H](NC(=O)Nc2c(C)c(-c3cnc4c(cnn4C)c3)nn2-c2ccccc2)[C@H](c2ccc(F)c(F)c2)N1C [Compound I-172] |  | pIC50 (human TrkA; read-out: IC50 value): 9.03
CCOc1ncc(-c2nn(-c3ccccc3)c(NC(=O)N[C@@H]3C[C@@H](CCOC)N(C)[C@H]3c3ccc(F)c(F)c3)c2C)cn1 [Compound I-174] | > 7.00 | inhibition at 10 μmol/L (hERG channel (IKr)): 33.6%
COCC[C@@H]1C[C@@H](NC(=O)Nc2c(C)c(-c3ccc(OC)nc3)nn2-c2ccccc2)[C@H](c2ccnc(F)c2)N1C [Compound I-175] | > 7.00 | 
COCC[C@@H]1C[C@@H](NC(=O)Nc2c3c(nn2-c2ccccc2)CCC3)[C@H](c2ccnc(F)c2)N1C [Compound I-177] | > 7.00 | 
COCC[C@@H]1C[C@@H](NC(=O)Nc2c(C)c(C)nn2-c2ccccc2)[C@H](c2ccnc(F)c2)N1C [Compound I-178] | > 7.00 | 
COCC[C@@H]1C[C@@H](NC(=O)Nc2c(C)c(-c3cnc(N4CC(OC)C4)nc3)nn2-c2ccccc2)[C@H](c2ccnc(F)c2)N1C [Compound I-180] | > 7.00 | 

The next lines start with results.

pIC50 (human TrkA; read-out: IC50_nM) | SMILES | other results
> 7.00 | CCOc1ncc(-c2nn(-c3ccccc3)c(NC(=O)N[C@@H]3C[C@@H](CCOC)N(C)[C@H]3c3ccnc(F)c3)c2C)cn1 [Compound I-93] | inhibition at 5 μmol/L (hERG channel (IKr)): 11.6%
> 7.00 | CNC(=O)c1cc(-c2nn(-c3ccccc3)c(NC(=O)N[C@@H]3C[C@@H](CCOC)C[C@H]3c3ccccc3)c2C)cn(C)c1=O [Compound I-117] | 
> 7.00 | COCC[C@@H]1C[C@@H](NC(=O)Nc2c(C)c(-c3cc(C(=O)NC4CCOCC4)c(=O)n(C)c3)nn2-c2ccccc2)[C@H](c2ccccc2)C1 [Compound I-118] | 
> 7.00 | COCC[C@@H]1C[C@@H](NC(=O)Nc2c(C)c(-c3cc(C(=O)NOCc4ccccc4)c(=O)n(C)c3)nn2-c2ccccc2)[C@H](c2ccccc2)C1 [Compound I-119] | 
> 7.00 | CNC(=O)c1cc(-c2nn(-c3ccccc3)c(NC(=O)N[C@@H]3C[C@@H](CCOC)C[C@H]3c3ccccc3)c2C)cnc1OC [Compound I-144] | 
> 7.00 | CNC(=O)c1cc(-c2nn(-c3ccccc3)c(NC(=O)N[C@@H]3C[C@@H](CCOC)C[C@H]3c3ccnc(F)c3)c2C)cnc1OC [Compound I-145] | 
> 7.00 | CNS(=O)(=O)c1cc(-c2nn(-c3ccccc3)c(NC(=O)N[C@@H]3C[C@@H](CCOC)C[C@H]3c3ccccc3)c2C)cn(C)c1=O [Compound I-148] | 
> 7.00 | COCC[C@@H]1C[C@@H](NC(=O)Nc2c(C)c(-c3ccc(N=S(C)(C)=O)nc3)nn2-c2ccccc2)[C@H](c2ccccc2)C1 [Compound I-152] | 
> 7.00 | COCC[C@@H]1C[C@@H](NC(=O)Nc2c(C)c(-c3cc(C(=O)NOC)c(=O)n(C)c3)nn2-c2ccccc2)[C@H](c2ccccc2)C1 [Compound I-153] | 
> 7.00 | COCC[C@@H]1C[C@@H](NC(=O)Nc2c(C)c(-c3cc(C#N)c(=O)n(C)c3)nn2-c2ccccc2)[C@H](c2ccccc2)C1 [Compound I-154] | 
> 7.00 | COCCN1C[C@@H](NC(=O)Nc2c(C)c(-c3cnc4c(c3)c(N=S(C)(C)=O)nn4C)nn2-c2ccccc2)[C@H](c2ccc(F)c(F)c2)C1 [Compound I-163] | 
> 7.00 | COCC[C@@H]1C[C@@H](NC(=O)Nc2c(C)c(-c3cnc(N4CC(O)C4)nc3)nn2-c2ccccc2)[C@H](c2ccnc(F)c2)C1 [Compound I-166] | 
> 7.00 | CCOc1ncc(-c2nn(-c3ccccc3)c(NC(=O)N[C@@H]3C[C@@H](CCOC)C[C@H]3c3ccc(F)c(F)c3)c2C)cn1 [Compound I-169] | inhibition at 10 μmol/L (hERG channel (IKr)): 21%
> 7.00 | COCC[C@@H]1C[C@@H](NC(=O)Nc2c(C)c(-c3cnc4c(c3)oc(=O)n4C)nn2-c2ccccc2)[C@H](c2ccnc(F)c2)N1C [Compound I-170] | 
> 7.00 | COCC[C@@H]1C[C@@H](NC(=O)Nc2c(C)c(-c3cnc4c(c3)nnn4C)nn2-c2ccccc2)[C@H](c2ccnc(F)c2)N1C [Compound I-171] | 
> 7.00 | CNC(=O)c1cc(-c2nn(-c3ccccc3)c(NC(=O)N[C@@H]3C[C@@H](CCOC)N(C)[C@H]3c3ccnc(F)c3)c2C)cnc1OC [Compound I-176] | 
